Test [1] concerns femoral artery blood flow. Kind of test: Blood flow-increasing action (average femoral artery blood flow after intraarterial injection, relative to papaverine). It counts as in vivo, mongrel dogs. As to conditions: anesthetized dogs, dose 0.03, 0.003 or 0.0003 mg/kg, papaverine 0.03 mg/kg = 1.00. The procedure:
The blood flow at a femoral artery is measured by each of four male and female mongrel dogs weighing from 10 to 14 kg. That is, each subject is anesthetized by injecting intravenously 30 mg/kg of pentobarbital and one side femoral artery is exposed. A probe (2.5 mm diameter) of a magnetic blood flow meter (Model MF-26, a product of Nihon-Koden K.K.) is fitted to this artery and a catheter is inserted into and fixed to a side branch of this femoral artery. Intraarterial injection of 0.1 ml of the sample is then made and the average blood flow is measured. The dose of the sample is 0.03 mg/kg. When the blood flow-increasing action is strong, the dose is made 0.003 mg/kg and when the blood flow-increasing action is even stronger, it is made 0.0003 mg/kg in order to conduct the experiments. […] The numerical values in Table 1 represent the relative values of the compounds of this invention when the height of the blood flow-increase curve obtained by administration of 0.03 mg/kg papaverine is arbitrarily assigned the value 1.00. In other words, these values represent the ratio of the efficacy of the compounds of this invention relative to the activity of papaverine, with the latter being assigned the value 1.

Test [2] relates to phenylquinone-induced writhing in mice. The experiment in a line: Analgesic action: anti-writhing activity in mice (phenylquinone). In kind it is in vivo. Particulars: 4 mice. The protocol:
The analgesic action of the compounds of the present invention was examined by the following experiment, using the writhing method disclosed in E. Siegmund et al; Proc. Soc. Exp. Biol. & Med., Vol. 95, 729 (1957).
Thirty minutes after subcutaneous injection of the compounds of the present invention, 2 mg/kg of phenylquinone was injected intraperitoneally to the mice. And 5 minutes later, the total number of writhes was counted for 4 minutes. Four mice were used for each dose level.
A general note: An intraperitoneal irritant provokes the stretching counted in writhing tests.

The test system of test [3] is fighting behavior in mice. The experiment in a line: Inhibition of the fighting behavior in mice. Particulars: for No. of fighting episodes: one hour after administration, 10 experiments. In kind it is in vivo. From the text: The anti-fighting action was examined in the following experiment, using the method disclosed in Ralph E. Tedeshi et al, Journal of Pharmacology and Experimental Therapeutics, Vol. 125, 28-34 (1959).
A pair of mice was placed in a plastic cage (16×10×18 cm) with the grid floor and applied electrical shocks (3 mA, 5 Hz, 50 msec.) during a 3-minutes period to their feet to induce the fighting behavior between the mice.
In this experiment, each sample (the compounds of the present invention, and chlorpromazine and diazepam as control medicines) was prepared in a form of a 5% arabic gum suspension and was orally administered to the mice. One hour after oral administration, the fighting behavior was observed. A 5% arabic gum solution was administered to the control group. Ten pairs of mice were used for each dose level.

Test [4] concerns grooming behavior in mice. The experiment in a line: Inhibition of grooming behavior in mice. It counts as in vivo. Particulars: for Number of grooming responses: 20-minutes count, 10 mice. The procedure:
The grooming behavior-inhibiting action of the compounds of the present invention was examined by the following experiments, using the method disclosed in O. Rohte; Psychopharmacologia, Vol. 14, 18-22 (1969).
In this experiment, each sample (the compounds of the present invention, and chlorpromazine and diazepam as control medicines) was prepared in a form of 5% arabic gum suspension of 0.1 ml/10 g body weight of the animal.
Forty minutes after oral administration of each sample, the oily ink was painted on each mouse. And 10 minutes later, the number of grooming responses was counted for a 20-minutes period. A 5% arabic gum solution alone was administered to the control group.

This is an account of results in US4493837A, “Theobromine derivatives” (Eisai Co., Ltd., priority 1979, dated 1985).

Turning to `COc1ccccc1N1CCN(CCCCCCn2c(=O)c3c(ncn3C)n(C)c2=O)CC1`, the “Specific activity (blood flow increase relative to papaverine = 1)” value in test [1] is reported as 404.

For the compound `Cn1cnc2c1c(=O)n(CCCCCN1CCN(c3ccccc3)CC1)c(=O)n2C`, the “Specific activity (blood flow increase relative to papaverine = 1)” value in test [1] was 247.

As for `COc1ccccc1N1CCN(CCCn2c(=O)c3c(ncn3C)n(C)c2=O)CC1`, in test [1], the “Specific activity (blood flow increase relative to papaverine = 1)” value is on record as 143.

For the compound `COc1ccccc1N1CCN(CCn2c(=O)c3c(ncn3C)n(C)c2=O)CC1`, in test [1], the “Specific activity (blood flow increase relative to papaverine = 1)” value stood at 95.

Regarding `Cc1cccc(C)c1N1CCN(CCCCn2c(=O)c3c(ncn3C)n(C)c2=O)CC1`, the “% Inhibition (writhing)” value in test [2] (2.5 mg/kg s.c.) was determined as 0%; in test [2] (5.0 mg/kg s.c.), 53%; in test [2] (10.0 mg/kg s.c.), 77%; in test [2] (25.0 mg/kg s.c.), 85%.

For the compound `Cn1cnc2c1c(=O)n(CCCCCN1CCN(c3ccccc3Cl)CC1)c(=O)n2C`, the “% Inhibition (writhing)” value is recorded as 0% in test [2] (1.0 mg/kg s.c.), 56% in test [2] (2.5 mg/kg s.c.), 87% in test [2] (5.0 mg/kg s.c.) and 100% in test [2] (10.0 mg/kg s.c.).

Turning to `Cn1cnc2c1c(=O)n(CCCCCCN1CCN(c3ccccc3Cl)CC1)c(=O)n2C`, the “% Inhibition (writhing)” value in test [2] (0.25 mg/kg s.c.) is 10%; in test [2] (0.5 mg/kg s.c.), 70%; in test [2] (1.0 mg/kg s.c.) it was 80%; in test [2] (2.5 mg/kg s.c.), 90%; in test [2] (5.0 mg/kg s.c.), 100%.

On to `COc1ccc(Cc2nccc3cc(OC)c(OC)cc23)cc1OC` [Papaverine, reference compound], for which the “Specific activity (blood flow increase relative to papaverine = 1)” value in test [1] amounted to 1.

In the case of `CN(C)CCCN1c2ccccc2Sc2ccc(Cl)cc21` [chlorpromazine, reference compound], the entries for the “% Inhibition (fighting episodes)” value in test [3] (0.625 mg/kg P.O.) and in test [3] (2.5 mg/kg P.O.) were 30% and 45%, respectively. Further, the results for the “No. of fighting episodes” value in test [3] (0.625 mg/kg P.O.) and in test [3] (2.5 mg/kg P.O.) were 3.9 ± 0.8 and 3.1 ± 1.0, respectively. Besides, the “% Inhibition (grooming responses)” value in test [4] (0.625 mg/kg P.O.) was found to be 30%; in test [4] (2.5 mg/kg P.O.) it was 91%; in test [4] (10 mg/kg P.O.) it was 61%; in test [4] (40 mg/kg P.O.), 80%. Also, the “Number of grooming responses” value in test [4] (0.625 mg/kg P.O.) is 21.4 ± 4.3; in test [4] (2.5 mg/kg P.O.), 2.9 ± 2.9; in test [4] (10 mg/kg P.O.), 5.8 ± 5.8; in test [4] (40 mg/kg P.O.) it was 5.9 ± 5.9.

Consider `CN1C(=O)CN=C(c2ccccc2)c2cc(Cl)ccc21` [diazepam, reference compound], for which the “% Inhibition (fighting episodes)” value stood at 29% in test [3] (0.625 mg/kg P.O.) and 63% in test [3] (1.25 mg/kg P.O.). Besides, the “No. of fighting episodes” value is listed as 4.0 ± 1.0 in test [3] (0.625 mg/kg P.O.) and 2.1 ± 0.9 in test [3] (1.25 mg/kg P.O.). The figures for the “% Inhibition (grooming responses)” value in test [4] (0.625 mg/kg P.O.), in test [4] (2.5 mg/kg P.O.) and in test [4] (10 mg/kg P.O.) were 53%, 68% and 75%, respectively. In addition, the figures for the “Number of grooming responses” value in test [4] (0.625 mg/kg P.O.), in test [4] (2.5 mg/kg P.O.) and in test [4] (10 mg/kg P.O.) were 14.3 ± 4.2, 9.5 ± 5.2 and 7.6 ± 3.2, respectively.

Consider `Cn1cnc2c1c(=O)n(CCCCN1CCN(c3cccc(C(F)(F)F)c3)CC1)c(=O)n2C` [drawing 17], for which the “% Inhibition (grooming responses)” value in test [4] (0.625 mg/kg P.O.) came to 49%; in test [4] (2.5 mg/kg P.O.), 46%; in test [4] (10 mg/kg P.O.), 95%; in test [4] (40 mg/kg P.O.), 100%. Besides, the “Number of grooming responses” value in test [4] (0.625 mg/kg P.O.) was 15.5 ± 5.8; in test [4] (2.5 mg/kg P.O.), 16.5 ± 5.9; in test [4] (10 mg/kg P.O.), 1.6 ± 1.6; in test [4] (40 mg/kg P.O.), 0.

Take `COc1ccccc1N1CCN(CCCCn2c(=O)c3c(ncn3C)n(C)c2=O)CC1` [drawing 18]: the “% Inhibition (grooming responses)” value in test [4] (0.625 mg/kg P.O.) is on record as 23%; in test [4] (2.5 mg/kg P.O.), 49%; in test [4] (10 mg/kg P.O.), 68%; in test [4] (40 mg/kg P.O.), 100%. Moreover, the “Number of grooming responses” value is 23.4 ± 6.1 in test [4] (0.625 mg/kg P.O.), 15.6 ± 4.5 in test [4] (2.5 mg/kg P.O.), 9.5 ± 4.1 in test [4] (10 mg/kg P.O.) and 0 in test [4] (40 mg/kg P.O.).

In the case of `Cn1cnc2c1c(=O)n(CCCCN1CCN(c3cccc(C(F)(F)F)c3)CC1)c(=O)n2C` [drawing 19], in test [3] (0.625 mg/kg P.O.), the “% Inhibition (fighting episodes)” value was 25% and the “No. of fighting episodes” value stood at 4.2 ± 0.7. In test [3] (2.5 mg/kg P.O.), the “% Inhibition (fighting episodes)” value is given as 81% and the “No. of fighting episodes” value was 1.0.

As to `COc1ccccc1N1CCN(CCCCn2c(=O)c3c(ncn3C)n(C)c2=O)CC1` [drawing 20], in test [3] (0.625 mg/kg P.O.), the “% Inhibition (fighting episodes)” value is given as 41% and the “No. of fighting episodes” value is 3.3 ± 0.7. In test [3] (2.5 mg/kg P.O.), the “% Inhibition (fighting episodes)” value was 71% and the “No. of fighting episodes” value amounted to 1.6.
